Data reported in US6479435B1, “Diaryl ethers and processes for their preparation and herbicidal and desiccant compositions containing them” (ISK Americas Incorporated, priority 1997, dated 2002).

What was measured:
Assay type in all cases: in vivo
[1] = system: Johnsongrass (Sorghum halepense, SORHA); assay: Pre-emerge greenhouse herbicide test, phytotoxicity rating; settings: 14 days after application, rating scale 0-100
How it was run: (§1)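 Seeds sown in sandy loam mix one day before track-sprayer application of compounds in acetone at 125–1000 g ai/ha (187 l/ha), then surface-watered to incorporate and bottom-watered. Visual rating 14 days after application on a 0–100 scale (0 = no damage, 100 = all plants dead).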

[2] = system: barnyardgrass (Echinochloa crusgalli, ECHCG); assay: as above; settings: 14 days after application, rating scale 0-100
How it was run: as §1

[3] = system: common ragweed (Ambrosia artemisiifolia L., AMBEL); assay: as above; settings: 14 days after application, rating scale 0-100
How it was run: as §1

[4] = system: green foxtail (Setaria viridis, SETVI); assay: as above; settings: 14 days after application, rating scale 0-100
How it was run: as §1

[5] = system: ivyleaf morningglory (Ipomoea hederacea, IPOHE); assay: as above; settings: 14 days after application, rating scale 0-100
How it was run: as §1

[6] = system: lambsquarters (Chenopodium album, CHEAL); assay: as above; settings: 14 days after application, rating scale 0-100
How it was run: as §1

[7] = system: large crabgrass (Digitaria sanguinalis, DIGSA); assay: as above; settings: 14 days after application, rating scale 0-100
How it was run: as §1

[8] = system: redroot pigweed (Amaranthus retroflexus, AMARE); assay: as above; settings: 14 days after application, rating scale 0-100
How it was run: as §1

[9] = system: sicklepod (Cassia obtusifolia, CASOB); assay: as above; settings: 14 days after application, rating scale 0-100
How it was run: as §1

[10] = system: velvetleaf (Abutilon theophrasti, ABUTH); assay: as above; settings: 14 days after application, rating scale 0-100
How it was run: as §1

[11] = system: field corn (Zea mays L., var. Dekalb 535, CORN); assay: Pre-emerge greenhouse test, crop damage rating; settings: 14 days after application, rating scale 0-100
How it was run: as §1

[12] = system: upland rice (Oryza sp., var.Tebonnet, RICE); assay: Pre-emerge greenhouse test, crop damage rating; settings: 14 days after application, rating scale 0-100
How it was run: as §1

[13] = system: soybean (Glycine max L., var. Pella 86, SOY); assay: Pre-emerge greenhouse test, crop damage rating; design: key to SOY crop damage rating: 0 = no damage, 100 = complete death of all plants; settings: 14 days after application, rating scale 0-100
How it was run: as §1

[14] = system: common ragweed (Ambrosia artemisiifolia L., AMBEL); assay: Post-emerge greenhouse herbicide test, phytotoxicity rating; settings: 14 days after application, scale 0-100
How it was run: (§2)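 Compounds in acetone with 0.25% v/v non-ionic surfactant were track-sprayed at 187 l/ha over plants at the 2-3 leaf stage, at 63 to 1000 g ai/ha. Pots were bottom-watered. Injury was scored visually 14 days later on a 0-100 scale, where 0 is no damage and 100 is complete plant death.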

[15] = system: Johnsongrass (Sorghum halepense, SORHA); assay: as above; settings: 14 days after application, scale 0-100
How it was run: as §2

[16] = system: barnyardgrass (Echinochloa crusgalli, ECHCG); assay: as above; settings: 14 days after application, scale 0-100
How it was run: as §2

[17] = system: green foxtail (Setaria viridis, SETVI); assay: as above; settings: 14 days after application, scale 0-100
How it was run: as §2

[18] = system: ivyleaf morningglory (Ipomoea hederacea, IPOHE); assay: as above; settings: 14 days after application, scale 0-100
How it was run: as §2

[19] = system: lambsquarters (Chenopodium album, CHEAL); assay: as above; settings: 14 days after application, scale 0-100
How it was run: as §2

[20] = system: large crabgrass (Digitaria sanguinalis, DIGSA); assay: as above; settings: 14 days after application, scale 0-100
How it was run: as §2

[21] = system: redroot pigweed (Amaranthus retroflexus, AMARE); assay: as above; settings: 14 days after application, scale 0-100
How it was run: as §2

[22] = system: sicklepod (Cassia obtusifolia, CASOB); assay: as above; settings: 14 days after application, scale 0-100
How it was run: as §2

[23] = system: velvetleaf (Abutilon theophrasti, ABUTH); assay: as above; settings: 14 days after application, scale 0-100
How it was run: as §2

[24] = system: field corn (Zea mays L., var. Dekalb 535, CORN); assay: Post-emerge greenhouse test, crop damage rating; settings: 14 days after application, scale 0-100
How it was run: as §2

[25] = system: upland rice (Oryza sp., var.Tebonnet, RICE); assay: Post-emerge greenhouse test, crop damage rating; settings: 14 days after application, scale 0-100
How it was run: as §2

[26] = system: soybean (Glycine max L., var. Pella 86, SOY); assay: Post-emerge greenhouse test, crop damage rating; design: key to crop damage rating SOY: 0-100 scale: 0 = no damage, 100 = complete death of all plants; settings: 14 days after application, scale 0-100
How it was run: as §2

CC(C)S(=O)(=O)c1cccnc1Oc1cc(-n2c(=O)n3n(c2=S)CCCC3)c(F)cc1Cl [Compound 8-37]
60: phytotoxicity rating AMBEL ([14]; rate 500 g ai/ha)
10: RICE crop damage rating ([12]; Rate 125 g al/ha) | phytotoxicity rating ECHCG ([16]; rate 500 g ai/ha)
50: SOY crop damage rating ([13]; Rate 125 g al/ha) | phytotoxicity rating SORHA ([15]; rate 500 g ai/ha)
40: crop damage rating CORN ([24]; rate 500 g ai/ha)
20: SORHA phytotoxicity rating ([1]; Rate 125 g al/ha)
90: phytotoxicity rating CHEAL ([19]; rate 63 g ai/ha) | phytotoxicity rating CHEAL ([19]; rate 500 g ai/ha) | phytotoxicity rating AMARE ([21]; rate 63 g ai/ha) | crop damage rating SOY ([26]; rate 63 g ai/ha)
0: CASOB phytotoxicity rating ([9]; Rate 125 g al/ha) | CORN crop damage rating ([11]; Rate 125 g al/ha) | phytotoxicity rating SORHA ([15]; rate 63 g ai/ha) | phytotoxicity rating ECHCG ([16]; rate 63 g ai/ha) | phytotoxicity rating SETVI ([17]; rate 63 g ai/ha) | phytotoxicity rating DIGSA ([20]; rate 63 g ai/ha) | phytotoxicity rating DIGSA ([20]; rate 500 g ai/ha) | crop damage rating CORN ([24]; rate 63 g ai/ha) | crop damage rating RICE ([25]; rate 63 g ai/ha)
80: SORHA phytotoxicity rating ([1]; Rate 500 g al/ha) | DIGSA phytotoxicity rating ([7]; Rate 125 g al/ha) | CASOB phytotoxicity rating ([9]; Rate 500 g al/ha) | RICE crop damage rating ([12]; Rate 500 g al/ha) | SOY crop damage rating ([13]; Rate 500 g al/ha) | phytotoxicity rating IPOHE ([18]; rate 500 g ai/ha)
95: phytotoxicity rating IPOHE ([18]; rate 63 g ai/ha) | phytotoxicity rating AMARE ([21]; rate 500 g ai/ha) | phytotoxicity rating CASOB ([22]; rate 500 g ai/ha)
30: ECHCG phytotoxicity rating ([2]; Rate 125 g al/ha) | IPOHE phytotoxicity rating ([5]; Rate 125 g al/ha) | phytotoxicity rating AMBEL ([14]; rate 63 g ai/ha) | phytotoxicity rating SETVI ([17]; rate 500 g ai/ha)
25: CORN crop damage rating ([11]; Rate 500 g al/ha)
85: IPOHE phytotoxicity rating ([5]; Rate 500 g al/ha)
100: ECHCG phytotoxicity rating ([2]; Rate 500 g al/ha) | AMBEL phytotoxicity rating ([3]; Rate 125 g al/ha) | AMBEL phytotoxicity rating ([3]; Rate 500 g al/ha) | SETVI phytotoxicity rating ([4]; Rate 125 g al/ha) | SETVI phytotoxicity rating ([4]; Rate 500 g al/ha) | CHEAL phytotoxicity rating ([6]; Rate 125 g al/ha) | CHEAL phytotoxicity rating ([6]; Rate 500 g al/ha) | DIGSA phytotoxicity rating ([7]; Rate 500 g al/ha) | AMARE phytotoxicity rating ([8]; Rate 125 g al/ha) | AMARE phytotoxicity rating ([8]; Rate 500 g al/ha) | ABUTH phytotoxicity rating ([10]; Rate 125 g al/ha) | ABUTH phytotoxicity rating ([10]; Rate 500 g al/ha) | phytotoxicity rating CASOB ([22]; rate 63 g ai/ha) | phytotoxicity rating ABUTH ([23]; rate 63 g ai/ha) | phytotoxicity rating ABUTH ([23]; rate 500 g ai/ha) | crop damage rating SOY ([26]; rate 500 g ai/ha)
35: crop damage rating RICE ([25]; rate 500 g ai/ha)

CCOC(=O)C(C)Oc1cc([N+](=O)[O-])c(Oc2cc(-n3c(=O)n4n(c3=S)CCCC4)c(F)cc2Cl)cc1Cl (centres unmarked) [Compound 8-38]
60: phytotoxicity rating AMARE ([21]; rate 63 g ai/ha)
90: CHEAL phytotoxicity rating ([6]; Rate 250 g al/ha)
80: CHEAL phytotoxicity rating ([6]; Rate 125 g al/ha) | AMARE phytotoxicity rating ([8]; Rate 250 g al/ha)
70: SETVI phytotoxicity rating ([4]; Rate 250 g al/ha) | phytotoxicity rating AMARE ([21]; rate 250 g ai/ha)
30: IPOHE phytotoxicity rating ([5]; Rate 250 g al/ha) | AMARE phytotoxicity rating ([8]; Rate 125 g al/ha) | phytotoxicity rating CASOB ([22]; rate 63 g ai/ha) | phytotoxicity rating CASOB ([22]; rate 250 g ai/ha)
50: phytotoxicity rating AMBEL ([14]; rate 250 g ai/ha) | phytotoxicity rating CHEAL ([19]; rate 250 g ai/ha) | crop damage rating RICE ([25]; rate 250 g ai/ha)
100: ABUTH phytotoxicity rating ([10]; Rate 125 g al/ha) | ABUTH phytotoxicity rating ([10]; Rate 250 g al/ha) | phytotoxicity rating IPOHE ([18]; rate 250 g ai/ha) | phytotoxicity rating ABUTH ([23]; rate 63 g ai/ha)
0: SORHA phytotoxicity rating ([1]; Rate 125 g al/ha) | SORHA phytotoxicity rating ([1]; Rate 250 g al/ha) | ECHCG phytotoxicity rating ([2]; Rate 125 g al/ha) | ECHCG phytotoxicity rating ([2]; Rate 250 g al/ha) | AMBEL phytotoxicity rating ([3]; Rate 125 g al/ha) | AMBEL phytotoxicity rating ([3]; Rate 250 g al/ha) | SETVI phytotoxicity rating ([4]; Rate 125 g al/ha) | IPOHE phytotoxicity rating ([5]; Rate 125 g al/ha) | DIGSA phytotoxicity rating ([7]; Rate 125 g al/ha) | DIGSA phytotoxicity rating ([7]; Rate 250 g al/ha) | CASOB phytotoxicity rating ([9]; Rate 125 g al/ha) | CASOB phytotoxicity rating ([9]; Rate 250 g al/ha) | CORN crop damage rating ([11]; Rate 125 g al/ha) | CORN crop damage rating ([11]; Rate 250 g al/ha) | RICE crop damage rating ([12]; Rate 125 g al/ha) | RICE crop damage rating ([12]; Rate 250 g al/ha) | SOY crop damage rating ([13]; Rate 125 g al/ha) | SOY crop damage rating ([13]; Rate 250 g al/ha) | phytotoxicity rating SORHA ([15]; rate 63 g ai/ha) | phytotoxicity rating SORHA ([15]; rate 250 g ai/ha) | phytotoxicity rating ECHCG ([16]; rate 63 g ai/ha) | phytotoxicity rating ECHCG ([16]; rate 250 g ai/ha) | phytotoxicity rating SETVI ([17]; rate 63 g ai/ha) | phytotoxicity rating DIGSA ([20]; rate 63 g ai/ha) | phytotoxicity rating DIGSA ([20]; rate 250 g ai/ha) | crop damage rating CORN ([24]; rate 63 g ai/ha)
20: phytotoxicity rating AMBEL ([14]; rate 63 g ai/ha) | phytotoxicity rating SETVI ([17]; rate 250 g ai/ha) | crop damage rating CORN ([24]; rate 250 g ai/ha) | crop damage rating RICE ([25]; rate 63 g ai/ha) | crop damage rating SOY ([26]; rate 250 g ai/ha)
40: phytotoxicity rating IPOHE ([18]; rate 63 g ai/ha) | phytotoxicity rating CHEAL ([19]; rate 63 g ai/ha)
10: crop damage rating SOY ([26]; rate 63 g ai/ha)
00: phytotoxicity rating ABUTH ([23]; rate 250 g ai/ha)
